# Test results from ChEMBL document CHEMBL1152092, “A potent long-acting imidazole-5-acrylic acid angiotensin II AT-1 receptor antagonist” (Bioorg Med Chem Lett, 1994).
# How the values were obtained:
# [1] = target: T1, Type-1 angiotensin II receptor (Homo sapiens, UniProt P30556); test: Tested for binding affinity to Angiotensin II receptor, type 1
# T1 sequence (P30556 whole entry): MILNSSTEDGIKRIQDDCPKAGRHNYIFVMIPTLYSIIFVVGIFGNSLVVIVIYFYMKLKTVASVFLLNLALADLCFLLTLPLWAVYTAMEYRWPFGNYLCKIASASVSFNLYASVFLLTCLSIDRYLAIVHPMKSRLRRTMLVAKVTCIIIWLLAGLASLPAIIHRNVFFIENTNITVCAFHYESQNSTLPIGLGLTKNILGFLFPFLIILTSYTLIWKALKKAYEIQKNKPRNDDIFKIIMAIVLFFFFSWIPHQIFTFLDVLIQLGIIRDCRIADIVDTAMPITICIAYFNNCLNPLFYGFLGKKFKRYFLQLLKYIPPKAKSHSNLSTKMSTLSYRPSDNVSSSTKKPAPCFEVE
# [2] = target: T1, Type-1 angiotensin II receptor; test: Tested for Angiotensin II receptor, type 1 affinity in the presence of 0.25% bovine serum albumin (BSA)
# Canis familiaris [3] = test: Tested for lowering of mean arterial blood pressure at a dose of 10 mg/kg id, in 2-kidney, 1-clip Goldblatt renin dependent hypertensive dog for more than 12 hours; format: functional, Canis lupus familiaris
# Rattus norvegicus [4] = test: Tested for the dose that produced a 50% inhibition of the pressor response to AII in conscious normotensive rats administered intravenously; format: functional; details: iv, read-out: ID50 (the source's name)
# [5] = target: T1, Type-1 angiotensin II receptor; test: Tested for Angiotensin II receptor, type 1 affinity in the absence of bovine serum albumin (BSA)
# Rattus norvegicus [6] = test: Tested for time for the pressor response to AII to recover 50% of its initial effect after intraduodenal dosing of 10 mg/kg; format: functional, organism-based; set-up: dose 10 mg/kg
# Rattus norvegicus [7] = species: Rattus norvegicus; test: Time required for effect of drug after washout of rat adrenal cortical membranes; format: functional
# Rattus norvegicus [8] = test: Tested for the dose that produced a 50% inhibition of the pressor response to AII in conscious normotensive rats administered intraduodenally; format: functional; details: intraduodenal, read-out: ID50 (the source's name)
# Canis familiaris [9] = test: Tested for po dose required to inhibit the pressor effect up to 14 hr in Angiotensin I infused dog; format: functional, Canis lupus familiaris
# Oryctolagus cuniculus [10] = species: Oryctolagus cuniculus; test: Tested for inhibition of AII-induced vasoconstriction of rabbit aorta; format: functional
# [11] = target: T2, Type-1 angiotensin II receptor B (Rattus norvegicus, UniProt P29089); test: Tested for inhibition of [125I]- AII specific binding to rat mesenteric arteries, expressed as IC50
# T2 sequence (P29089 whole entry): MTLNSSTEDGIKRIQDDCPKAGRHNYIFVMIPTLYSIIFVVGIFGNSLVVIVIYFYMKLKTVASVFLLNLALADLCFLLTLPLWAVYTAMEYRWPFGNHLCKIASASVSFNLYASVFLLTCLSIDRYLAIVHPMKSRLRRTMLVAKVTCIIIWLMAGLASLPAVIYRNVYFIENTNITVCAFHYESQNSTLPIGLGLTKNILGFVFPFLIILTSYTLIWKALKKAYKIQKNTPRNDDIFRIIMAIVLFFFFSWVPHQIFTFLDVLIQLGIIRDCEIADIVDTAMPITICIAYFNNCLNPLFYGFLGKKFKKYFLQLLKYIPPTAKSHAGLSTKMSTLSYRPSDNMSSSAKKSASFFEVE
# Rattus norvegicus [12] = test: Tested for time for the pressor response to AII to recover 50% of its initial effect after intraduodenal dosing of 30 mg/kg; format: functional, organism-based; set-up: dose 30 mg/kg
# Canis familiaris [13] = test: Tested for po dose required to inhibit the pressor effect up to 20 hr in Angiotensin I infused dog; format: functional, Canis lupus familiaris
# [14] = target: T1, Type-1 angiotensin II receptor; test: Tested for Angiotensin II receptor, type 1 affinity in the absence of BSA
# Oryctolagus cuniculus [15] = species: Oryctolagus cuniculus; test: Tested for inhibition of AII-induced vasoconstriction of rabbit aorta measured at 30% inhibition; format: functional
# [16] = target: T1, Type-1 angiotensin II receptor; test: Tested for Angiotensin II receptor, type 1 affinity in the presence of 0.25% BSA
Structure (SMILES),ED50 (Rattus norvegicus [4]) [mg/kg],T1/2 (Rattus norvegicus [6]) [h],ED50 (Rattus norvegicus [8]) [mg/kg],Kb (Oryctolagus cuniculus [10]) [nM],IC50 [11] [nM],also measured
CCCCc1ncc(/C=C(\Cc2cccs2)C(=O)O)n1Cc1ccccc1Cl,,,,,,IC50 [1]: 4530 nM
CCCCc1ncc(/C=C(\Cc2cccs2)C(=O)O)n1Cc1ccc(C(=O)O)cc1 [EPROSARTAN],0.08,1.42,5.5,0.21,,IC50 [2]: 7.3 nM; Mean blood pressure (Canis familiaris [3]): 35 mmHg; IC50 [5]: 2 nM; TIME (Rattus norvegicus [7]): 0.5 h; Dose (Canis familiaris [9]): 10 mg/kg
CCCCc1ncc(/C=C(\Cc2cccs2)C(=O)O)n1Cc1ccc(C(=O)O)c(Cl)c1,0.12,,16,0.13,1.04,T1/2 (Rattus norvegicus [12]): 1.8 h
CCCCc1ncc(/C=C(\Cc2cccs2)C(=O)O)n1Cc1cc(Cl)c(C(=O)O)cc1Cl,0.68,,,1.58,35.4,
CCCCc1ncc(/C=C(\Cc2cccs2)C(=O)O)n1Cc1ccc(C(=O)O)c2ccccc12,0.05,2.42,3.8,,11.8,Mean blood pressure (Canis familiaris [3]): 35 mmHg; Dose (Canis familiaris [13]): 10 mg/kg; IC50 [14]: 1.2 nM; TIME (Rattus norvegicus [7]): 3 h; Kb (Oryctolagus cuniculus [15]): 0.059 nM; IC50 [16]: 31 nM
CCCCc1ncc(/C=C(\Cc2cccs2)C(=O)O)n1Cc1ccccc1,,,,,,IC50 [1]: 440 nM
CCCCc1ncc(/C=C(\Cc2cccs2)C(=O)O)n1Cc1ccc(C(=O)O)cc1Cl,0.06,2.5,2.4,0.02,1.45,
CCCCc1ncc(/C=C(\Cc2cccs2)C(=O)O)n1Cc1ccc(C(=O)O)c(Cl)c1Cl,0.04,1.6,5.4,0.18,0.16,
